Assay: in vivo
Settings: C57BL/6, mouse, plasma, po

Row | fraction unbound at […] | Structure (SMILES)
1 | 0.1 | COc1ccc(C2(c3cccc(-c4cncnc4)c3)N=C(N)c3nc(C)sc32)cc1 (stereo not given)
2 | 0.07 | COc1cccc(-c2cccc(C3(C)CCSC(N)=N3)c2)c1 (stereo not given)

Assay: in vitro
Settings: human, Caco-2, pH 7.4, Papp

Row | Structure (SMILES) | Papp A→B at 10 µM [×10⁻⁶ cm/s]
3 | COc1ccc(C2(c3cccc(-c4cncnc4)c3)CCC(N)=N2)cc1 (stereo not given) | < 0.3
4 | CC1(c2cccc(-c3cncnc3)c2)N=C(N)c2ccccc2S1 (stereo not given) | 39
5 | CC1(c2cccc(-c3cncnc3)c2)N=C(N)c2ccccc2O1 (stereo not given) | 31
6 | CC1(c2cccc(-c3cccnc3)c2)N=C(N)c2ccccc2O1 (stereo not given) | 17
7 | COc1ccc(C2(c3cccc(-c4cccnc4)c3)N=C(N)CS2)cc1 (stereo not given) | 19
8 | CC1(c2cccc(-c3cncnc3)c2)N=C(N)c2c(F)cccc2O1 (stereo not given) | 39
9 | COc1ccc(C2(c3cccc(-c4cncnc4)c3)N=C(N)n3nc(C)cc32)cc1 (stereo not given) | 30
10 | COc1ccc(C2(c3cccc(-c4cncnc4)c3)N=C(N)c3nc(C)sc32)cc1 (stereo not given) | 18
11 | CC1(c2cccc(-c3cncnc3)c2)N=C(N)CCS1 (stereo not given) | 21

Results, then the compound that gave them:

Row | Papp A→B at 10 µM [×10⁻⁶ cm/s] | Structure (SMILES)
12 | 5.2 | COc1cccc(-c2cccc(C3(C)N=C(N)CCS3)c2)c1 (stereo not given)
13 | 23 | CC1(c2cccc(-c3cccnc3)c2)N=C(N)c2c(F)cccc2O1 (stereo not given)
14 | 15 | COc1cccc(-c2cccc(C3(C)N=C(N)CS3)c2)c1 (stereo not given)
15 | 16 | COc1cccc(-c2cccc(C3(C)N=C(N)CN3C(C)=O)c2)c1 (stereo not given)
16 | 13 | COc1cccc(-c2cccc(C3(C)N=C(N)CCO3)c2)c1 (stereo not given)
17 | 72 | COc1cccc(-c2cccc(C3(C)CCSC(N)=N3)c2)c1 (stereo not given)
18 | 2.1 | CC1(c2cccc(-c3cccc(Cl)c3)c2)N=C(N)CCO1 (stereo not given)
19 | 20 | COc1cccc(-c2cccc(C3(C)COCC(N)=N3)c2)c1 (stereo not given)

Assay: in vivo
Settings: C57BL/6, mouse, plasma, iv

Row | fraction unbound at […] | Structure (SMILES)
20 | 0.007 | COc1ccc(C2(c3cccc(-c4cccnc4)c3)N=C(N)CS2)cc1 (stereo not given)
21 | 0.89 | CC1(c2cccc(-c3cncnc3)c2)N=C(N)CCS1 (stereo not given)

Assay: physchem
Settings: not given

Row | Structure (SMILES) | chromatographic logD
22 | COc1ccc(C2(c3cccc(-c4cncnc4)c3)CCC(N)=N2)cc1 (stereo not given) | 0.9
23 | CC1(c2cccc(-c3cncnc3)c2)N=C(N)c2ccccc2S1 (stereo not given) | 1.7
24 | CC1(c2cccc(-c3cncnc3)c2)N=C(N)c2ccccc2O1 (stereo not given) | 1.2
25 | CC1(c2cccc(-c3cccnc3)c2)N=C(N)c2ccccc2O1 (stereo not given) | 1.8
26 | COc1ccc(C2(c3cccc(-c4cccnc4)c3)CC(OC)C(N)=N2)cc1 (stereo in doubt; form 4) | 1.8
27 | COc1ccc(C2(c3cccc(-c4cccnc4)c3)N=C(N)CS2)cc1 (stereo not given) | 2.9
28 | CC1(c2cccc(-c3cncnc3)c2)N=C(N)c2c(F)cccc2O1 (stereo not given) | 1.6
29 | COc1ccc(C2(c3cccc(-c4cncnc4)c3)N=C(N)n3nc(C)cc32)cc1 (stereo not given) | 2.3
30 | COc1ccc(C2(c3cccc(-c4cncnc4)c3)N=C(N)c3nc(C)sc32)cc1 (stereo not given) | 2
31 | C[C@]1(c2cccc(-c3cncc(F)c3)c2)N=C(N)[C@@H]2CCCCN21 (relative stereo) | 1.5
32 | CCC1(c2cccc(-c3cncnc3)c2)N=C(N)c2ccccc2O1 (stereo not given) | 1.8
33 | CC1(c2cccc(-c3cncnc3)c2)N=C(N)CCS1 (stereo not given) | < 0
34 | C[C@]1(c2cccc(-c3cncc(F)c3)c2)N=C(N)[C@H]2CCCCN21 (relative stereo) | 2

Now from value to compound:

Row | chromatographic logD | Structure (SMILES)
35 | 2.5 | COc1cccc(-c2cccc(C3(C)N=C(N)CCS3)c2)c1 (stereo not given)
36 | 2.3 | CC1(c2cccc(-c3cccnc3)c2)N=C(N)c2c(F)cccc2O1 (stereo not given)
37 | 3.6 | COc1cccc(-c2cccc(C3(C)N=C(N)CS3)c2)c1 (stereo not given)
38 | 1.4 | COc1cccc(-c2cccc(C3(C)N=C(N)CN3C(C)=O)c2)c1 (stereo not given)
39 | 2.5 | COc1cccc(-c2cccc(C3(C)N=C(N)CCO3)c2)c1 (stereo not given)
40 | 2.5 | COc1cccc(-c2cccc(C3(C)CCSC(N)=N3)c2)c1 (stereo not given)
41 | 3.3 | CC1(c2cccc(-c3cccc(Cl)c3)c2)N=C(N)CCO1 (stereo not given)
42 | 2.1 | COc1cccc(-c2cccc(C3(C)COCC(N)=N3)c2)c1 (stereo not given)

Assay: in vivo
Settings: C57BL/6, mouse, brain, iv

Row | fraction unbound at […] | Structure (SMILES)
43 | 0.01 | COc1ccc(C2(c3cccc(-c4cccnc4)c3)N=C(N)CS2)cc1 (stereo not given)
44 | 0.074 | CC1(c2cccc(-c3cncnc3)c2)N=C(N)CCS1 (stereo not given)

Assay: physchem
Settings: not given
Remark: another data set of the same source

Row | Structure (SMILES) | pKa
45 | COc1ccc(C2(c3cccc(-c4cncnc4)c3)CCC(N)=N2)cc1 (stereo not given) | 10
46 | CC1(c2cccc(-c3cncnc3)c2)N=C(N)c2ccccc2S1 (stereo not given) | 8.3
47 | CC1(c2cccc(-c3cncnc3)c2)N=C(N)c2ccccc2O1 (stereo not given) | 8.1
48 | CC1(c2cccc(-c3cccnc3)c2)N=C(N)c2ccccc2O1 (stereo not given) | 8.2
49 | COc1ccc(C2(c3cccc(-c4cccnc4)c3)N=C(N)CS2)cc1 (stereo not given) | 6.2
50 | CC1(c2cccc(-c3cncnc3)c2)N=C(N)c2c(F)cccc2O1 (stereo not given) | 6.9
51 | COc1ccc(C2(c3cccc(-c4cncnc4)c3)N=C(N)n3nc(C)cc32)cc1 (stereo not given) | 5.4
52 | COc1ccc(C2(c3cccc(-c4cncnc4)c3)N=C(N)c3nc(C)sc32)cc1 (stereo not given) | 8
53 | CCC1(c2cccc(-c3cncnc3)c2)N=C(N)c2ccccc2O1 (stereo not given) | 8.4
54 | CC1(c2cccc(-c3cncnc3)c2)N=C(N)CCS1 (stereo not given) | 9.1
55 | C[C@]1(c2cccc(-c3cncc(F)c3)c2)N=C(N)[C@H]2CCCCN21 (relative stereo) | 9.2
56 | COc1cccc(-c2cccc(C3(c4ccncc4)N=C(N)CS3)c2)c1 (stereo not given) | 5.4

The next lines start with the values.

Row | pKa | Structure (SMILES)
57 | 9.3 | COc1cccc(-c2cccc(C3(C)N=C(N)CCS3)c2)c1 (stereo not given)
58 | 7 | CC1(c2cccc(-c3cccnc3)c2)N=C(N)c2c(F)cccc2O1 (stereo not given)
59 | 6.9 | COc1cccc(-c2cccc(C3(C)N=C(N)CS3)c2)c1 (stereo not given)
60 | 6.5 | COc1cccc(-c2cccc(C3(C)N=C(N)CN3C(C)=O)c2)c1 (stereo not given)
61 | 10.5 | COc1cccc(-c2cccc(C3(C)CSCC(N)=N3)c2)c1 (stereo not given)
62 | 9.3 | COc1cccc(-c2cccc(C3(C)N=C(N)CCO3)c2)c1 (stereo not given)
63 | 7 | COc1cccc(-c2cccc(C3(C)CCSC(N)=N3)c2)c1 (stereo not given)
64 | 9.3 | CC1(c2cccc(-c3cccc(Cl)c3)c2)N=C(N)CCO1 (stereo not given)
65 | 9.8 | COc1cccc(-c2cccc(C3(C)COCC(N)=N3)c2)c1 (stereo not given)

Assay: in vivo
Settings: C57BL/6, mouse, brain and plasma, iv

Row | Kp at […] | Structure (SMILES)
66 | 0.9 | COc1ccc(C2(c3cccc(-c4cccnc4)c3)N=C(N)CS2)cc1 (stereo not given)
67 | 1.4 | CC1(c2cccc(-c3cncnc3)c2)N=C(N)CCS1 (stereo not given)

Assay: in vivo
Settings: C57BL/6, mouse, brain and plasma, po

Row | Kp uu at […] | Structure (SMILES)
68 | 0.04 | COc1ccc(C2(c3cccc(-c4cncnc4)c3)N=C(N)c3nc(C)sc32)cc1 (stereo not given)
69 | 0.64 | COc1cccc(-c2cccc(C3(C)CCSC(N)=N3)c2)c1 (stereo not given)

Assay: in vivo
Settings: C57BL/6, mouse, brain and plasma, iv
Remark: another data set of the same source

Row | Kp uu at […] | Structure (SMILES)
70 | 1.3 | COc1ccc(C2(c3cccc(-c4cccnc4)c3)N=C(N)CS2)cc1 (stereo not given)
71 | 0.27 | CC1(c2cccc(-c3cncnc3)c2)N=C(N)CCS1 (stereo not given)

Assay: in vivo
Settings: C57BL/6, mouse, brain and plasma, po
Remark: another data set of the same source

Row | Kp at […] | Structure (SMILES)
72 | 0.2 | COc1ccc(C2(c3cccc(-c4cncnc4)c3)N=C(N)c3nc(C)sc32)cc1 (stereo not given)
73 | 8.9 | COc1cccc(-c2cccc(C3(C)CCSC(N)=N3)c2)c1 (stereo not given)

Assay: in vivo
Settings: C57BL/6, mouse, brain, po

Row | fraction unbound at […] | Structure (SMILES)
74 | 0.02 | COc1ccc(C2(c3cccc(-c4cncnc4)c3)N=C(N)c3nc(C)sc32)cc1 (stereo not given)
75 | 0.005 | COc1cccc(-c2cccc(C3(C)CCSC(N)=N3)c2)c1 (stereo not given)

Reference: ChEMBL document CHEMBL2380236, “Core refinement toward permeable β-secretase (BACE-1) inhibitors with low hERG activity” (J Med Chem, 2013)
